Measurements taken from PMC6958387, “Biological Evaluation of Arylsemicarbazone Derivatives as Potential Anticancer Agents” (Pharmaceuticals, 2019).

Tests used:
K562 = assay: MTT cytotoxicity, 72 h; assay type: cell-based, human
Experimental: (§1) The cytotoxicity assessment was performed against three human cancer cell lines in suspension (K562, HL-60 and MOLT-4) and four adhered (HEp-2, NCI-H292, HT-29 and MCF-7).
(§2) The cells were obtained from the Cell Bank of Rio de Janeiro and maintained in the Laboratory of Cell Culture of the Department of Antibiotics of the Federal University of Pernambuco. The lines K562 (myeloblastic leukaemia), HL-60 (promyelocytic leukemia) and MOLT-4 (lymphoblastic leukemia) were cultured in RPMI 1640 medium and the lines HEp-2 (larynx carcinoma), NCI-H292 (lung carcinoma), HT-29 (colon adenocarcinoma) and MCF-7 (breast adenocarcinoma) were cultured in DMEM medium, supplemented with 10% fetal bovine serum, 2 mM glutamine, 100 U/mL penicillin and 100 μg/mL streptomycin (Gibco™ Life Technologies), at 37 °C and 5% CO2.
(§3) The evaluation of the cytotoxicity of the compounds was performed by the method of 3-(4,5-dimethyl-2-thiazolyl)-2,5-diphenyl-2H-tetrazolium bromide (MTT) (Sigma Aldrich Co., St. Louis, MO, USA). To perform the assay the cells were seeded in 96-well plates at the following concentrations: HL-60 and K562 (0.3 × 10^6 cells/mL); MOLT-4 and PBMC (10^6 cells/mL); NCI-H292, HT-29, HEp-2 e MCF-7 (10^5 cells/mL). Briefly, the compounds previously dissolved in DMSO (dimethylsulfoxide, Vetec, São Paulo, Brazil), were diluted in medium and added to each well at the desired concentrations. For the calculation of the concentration that inhibits 50% of cell growth (IC50) the compounds were serially diluted to obtain the final concentrations between 0.19–25 μg/mL. Doxorubicin was used as the standard in the concentration range between (0.078–10 μg/mL). After 72 h of contact of the cells with the compounds, it was added to each well 25 μL of MTT solution (5 mg/mL). Plates were left for another 3 h in incubator at 37 °C and at the end of that period the supernatant was aspirated. To perform the reading, 100 μL of DMSO was added in each well for the dissolution of the formazan crystals. The amount of formazan was measured by reading the plate at 560 nm absorbance. The IC50 was calculated from the nonlinear regression in the Prisma 7.0 software (GraphPad, San Diego, CA, USA). Each sample was tested in triplicate in three independent experiments.

HT-29 = assay: MTT cytotoxicity, 72 h; assay type: cell-based, human
Experimental: as §1, §2, §3

HEp-2 = assay: MTT cytotoxicity, 72 h; assay type: cell-based, human
Experimental: as §1, §2, §3

MCF-7 = assay: MTT cytotoxicity, 72 h; assay type: cell-based, human
Experimental: as §1, §2, §3

MOLT-4 = assay: MTT cytotoxicity, 72 h; assay type: cell-based, human
Experimental: as §1, §2, §3

NCI-H292 = assay: MTT cytotoxicity, 72 h; assay type: cell-based, human
Experimental: as §1, §2, §3

HL-60 = assay: MTT cytotoxicity, 72 h; assay type: cell-based, human; conditions: MTT, 72 h of incubation
Experimental: as §1, §2, §3

[1] = tested on: Peripheral Blood Mononuclear Cells (PBMCs); assay: MTT cytotoxicity in normal cells, 72 h; assay type: cell-based, human; conditions: 72 h of incubation
Experimental: In order to evaluate the cytotoxic potential in normal cells, all the derivatives were tested against Peripheral Blood Mononuclear Cells (PBMCs) and the most promising compounds were again compounds 3c and 4a, which offered more selectivity against the cancer cells.
Mononuclear cells were obtained from the peripheral blood of healthy volunteers by heparin tube collection and isolated by Ficoll-Histopaque gradient centrifugation. After centrifugation, the cells were harvested, washed and resuspended in RPMI 1640 medium supplemented with 20% fetal bovine serum, 2 mM glutamine, 100 U/mL penicillin and 100 μg/mL streptomycin (Gibco™ Life Technologies, Waltham, MA, USA). The phytohemagglutinin mitogen 2% was also added into the culture medium. After that, using the neubauer chamber, the cells were counted and plated in a 96-well plate at a concentration of 10^6 cells/mL and then were maintained for overnight under incubation at 37 °C and 5% CO2 [65].
as §3

HASPIN = target: T1, HASPIN (Homo sapiens, UniProt Q8TF76); assay: Kinase inhibition assay (ADP-Glo); assay type: biochemical; conditions: 10 µM ATP
T1 construct: kinase domain, amino acids 470 to 798; made in house; host or cells: bacteria
T1 sequence (Q8TF76 470-798): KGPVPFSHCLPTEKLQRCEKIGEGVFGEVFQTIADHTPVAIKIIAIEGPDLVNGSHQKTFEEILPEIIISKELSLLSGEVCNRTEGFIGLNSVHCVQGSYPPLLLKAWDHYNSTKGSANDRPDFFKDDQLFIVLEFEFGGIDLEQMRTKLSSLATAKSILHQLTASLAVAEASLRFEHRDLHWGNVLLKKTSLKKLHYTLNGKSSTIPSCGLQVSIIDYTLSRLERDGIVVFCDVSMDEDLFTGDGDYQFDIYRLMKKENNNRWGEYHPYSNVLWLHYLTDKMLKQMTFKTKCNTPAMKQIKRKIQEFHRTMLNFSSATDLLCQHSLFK
Experimental: HsHASPIN (human, kinase domain, amino acids 470 to 798, recombinant, expressed in bacteria) was assayed in buffer A with 0.007 µg/µL of Histone H3 (1-21) peptide ([…]) as substrate;

CK1δ/ε = assay: Kinase inhibition assay (ADP-Glo); assay type: biochemical, Sus scrofa domesticus; conditions: 10 µM ATP
Experimental: SscCK1δ/ε (Sus scrofa domesticus, casein kinase 1δ/ε, affinity purified from porcine brain) was assayed in buffer A, with 0.022 μg/μL of the following peptide: RRKHAAIGSpAYSITA (“Sp” stands for phosphorylated serine) as CK1-specific substrate.

CDK9/CyclinT = CDK9/CyclinT (Homo sapiens, UniProt P50750); assay: Kinase inhibition assay (ADP-Glo)
CDK5/p25 = target: T2, CDK5/p25 (Homo sapiens, UniProt Q00535); assay: Kinase inhibition assay (ADP-Glo); assay type: biochemical; conditions: 10 µM ATP
T2 construct: made in house; host or cells: bacteria
Experimental: HsCDK5/p25 (human, recombinant, expressed in bacteria) was assayed in buffer A, with 0.8 µg/µL of histone H1 as substrate.

AURKB = target: T3, AURKB (Homo sapiens, UniProt Q96GD4); assay: Kinase inhibition assay (ADP-Glo); assay type: biochemical; conditions: 10 µM ATP
T3 construct: purchased SignalChem A31-10G; host or cells: Sf9 insect cells (baculovirus)

CDK2/CyclinA = CDK2/CyclinA (Homo sapiens, UniProt P24941); assay: Kinase inhibition assay (ADP-Glo); assay type: biochemical; conditions: 10 µM ATP
Experimental: HsCDK2/CyclinA (human, cyclin-dependent kinase-2, kindly provided by Dr. A. Echalier-Glazer, Leicester, UK) was assayed in buffer A with 0.8 µg/µL of histone H1 as substrate.

GSK3 α/β = assay: Kinase inhibition assay (ADP-Glo); assay type: biochemical, Sus scrofa domesticus; conditions: 10 µM ATP
Experimental: SscGSK-3α/β (Sus scrofa domesticus, glycogen synthase kinase-3, affinity purified from porcine brain) was assayed in buffer A with 0.010 µg/µL of GS-1 peptide, a GSK-3-selective substrate ([…]pEDEEE, “Sp” stands for phosphorylated serine).

PIM1 = target: T4, PIM1 (Homo sapiens, UniProt P11309); assay: Kinase inhibition assay (ADP-Glo); assay type: biochemical; conditions: 10 µM ATP
T4 construct: made in house; host or cells: bacteria
Experimental: HsPIM1 (human proto-oncogene, recombinant, expressed in bacteria) was assayed in buffer B with 0.8 µg/µL of histone H1 (Sigma #H5505) as substrate.

CLK1 = target: T5, CLK1 (Mus musculus, UniProt P22518); assay: Kinase inhibition assay (ADP-Glo); assay type: biochemical; conditions: 10 µM ATP
T5 construct: made in house; host or cells: bacteria
Experimental: MmCLK1 (from Mus musculus, recombinant, expressed in bacteria) was assayed in buffer A with 0.027μg/µL of the following peptide: GRSRSRSRSRSR as substrate.

DYRK1A = target: T6, DYRK1A (Rattus norvegicus, UniProt Q63470); assay: Kinase inhibition assay (ADP-Glo); assay type: biochemical; conditions: 10 µM ATP
T6 construct: amino acids 1 to 499 including the kinase domain; made in house; host or cells: bacteria
Experimental: RnDYRK1A (Rattus norvegicus, amino acids 1 to 499 including the kinase domain, recombinant, expressed in bacteria, DNA vector kindly provided by Dr. W. Becker, Aachen, Germany) was assayed in buffer A with 0.033 μg/µL of the following peptide: KKISGRLSPIMTEQ as substrate.

[2] = Homo sapiens, K562, 72 h of incubation
[3] = Homo sapiens, HT-29, 72 h of incubation
[4] = Homo sapiens, HEp-2, 72 h of incubation
[5] = Homo sapiens, MCF7, 72 h of incubation
[6] = Homo sapiens, MOLT-4, 72 h of incubation
[7] = Homo sapiens, NCI-H292, 72 h of incubation

CDK9/CyclinT, sequence (P50750 whole entry): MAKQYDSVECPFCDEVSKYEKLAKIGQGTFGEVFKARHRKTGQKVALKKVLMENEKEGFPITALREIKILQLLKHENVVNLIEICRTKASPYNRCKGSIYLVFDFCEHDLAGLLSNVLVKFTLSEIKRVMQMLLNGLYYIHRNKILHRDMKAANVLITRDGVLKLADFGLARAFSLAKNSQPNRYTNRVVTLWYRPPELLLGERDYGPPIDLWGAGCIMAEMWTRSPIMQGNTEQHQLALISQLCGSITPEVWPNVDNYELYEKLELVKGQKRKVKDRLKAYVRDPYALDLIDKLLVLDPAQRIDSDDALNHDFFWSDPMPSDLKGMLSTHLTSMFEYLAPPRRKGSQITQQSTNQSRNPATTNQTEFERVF
CDK9/CyclinT, sequence (O60563 whole entry partner): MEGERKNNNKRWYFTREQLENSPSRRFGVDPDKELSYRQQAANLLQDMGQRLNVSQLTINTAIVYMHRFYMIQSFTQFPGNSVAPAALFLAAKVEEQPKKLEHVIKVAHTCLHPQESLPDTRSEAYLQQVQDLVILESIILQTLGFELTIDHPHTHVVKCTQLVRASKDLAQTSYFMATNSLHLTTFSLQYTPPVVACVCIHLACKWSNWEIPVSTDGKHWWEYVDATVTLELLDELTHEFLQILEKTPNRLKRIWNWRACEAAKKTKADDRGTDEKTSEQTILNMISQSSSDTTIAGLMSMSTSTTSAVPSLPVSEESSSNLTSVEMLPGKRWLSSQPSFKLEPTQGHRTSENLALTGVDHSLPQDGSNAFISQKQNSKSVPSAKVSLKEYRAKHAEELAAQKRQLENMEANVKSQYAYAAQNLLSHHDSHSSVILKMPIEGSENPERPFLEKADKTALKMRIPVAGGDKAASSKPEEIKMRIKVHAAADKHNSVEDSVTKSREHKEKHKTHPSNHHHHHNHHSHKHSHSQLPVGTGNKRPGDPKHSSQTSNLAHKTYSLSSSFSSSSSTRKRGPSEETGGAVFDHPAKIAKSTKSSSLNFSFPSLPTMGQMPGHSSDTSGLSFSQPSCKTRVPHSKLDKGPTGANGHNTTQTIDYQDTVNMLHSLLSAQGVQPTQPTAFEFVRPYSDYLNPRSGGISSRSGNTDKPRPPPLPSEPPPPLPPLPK
T3 sequence (Q96GD4 whole entry): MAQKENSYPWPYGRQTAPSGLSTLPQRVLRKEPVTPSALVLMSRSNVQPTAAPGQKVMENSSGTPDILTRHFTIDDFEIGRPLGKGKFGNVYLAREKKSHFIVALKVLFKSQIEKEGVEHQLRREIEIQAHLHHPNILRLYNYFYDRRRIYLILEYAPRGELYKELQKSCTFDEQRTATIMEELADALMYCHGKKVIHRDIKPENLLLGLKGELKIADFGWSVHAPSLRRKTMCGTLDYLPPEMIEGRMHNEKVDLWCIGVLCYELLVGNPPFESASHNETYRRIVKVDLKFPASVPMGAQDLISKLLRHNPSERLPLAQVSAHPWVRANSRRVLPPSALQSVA
T4 sequence (P11309 whole entry): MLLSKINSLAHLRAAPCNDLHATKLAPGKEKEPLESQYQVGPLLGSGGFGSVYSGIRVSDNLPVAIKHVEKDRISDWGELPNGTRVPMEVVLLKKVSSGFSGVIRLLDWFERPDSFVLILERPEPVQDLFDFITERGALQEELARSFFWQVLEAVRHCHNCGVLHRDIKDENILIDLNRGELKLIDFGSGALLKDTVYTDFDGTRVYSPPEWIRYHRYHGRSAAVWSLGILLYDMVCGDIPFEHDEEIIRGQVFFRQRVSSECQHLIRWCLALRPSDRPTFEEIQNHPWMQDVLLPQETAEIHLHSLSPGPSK
T5 sequence (P22518 whole entry): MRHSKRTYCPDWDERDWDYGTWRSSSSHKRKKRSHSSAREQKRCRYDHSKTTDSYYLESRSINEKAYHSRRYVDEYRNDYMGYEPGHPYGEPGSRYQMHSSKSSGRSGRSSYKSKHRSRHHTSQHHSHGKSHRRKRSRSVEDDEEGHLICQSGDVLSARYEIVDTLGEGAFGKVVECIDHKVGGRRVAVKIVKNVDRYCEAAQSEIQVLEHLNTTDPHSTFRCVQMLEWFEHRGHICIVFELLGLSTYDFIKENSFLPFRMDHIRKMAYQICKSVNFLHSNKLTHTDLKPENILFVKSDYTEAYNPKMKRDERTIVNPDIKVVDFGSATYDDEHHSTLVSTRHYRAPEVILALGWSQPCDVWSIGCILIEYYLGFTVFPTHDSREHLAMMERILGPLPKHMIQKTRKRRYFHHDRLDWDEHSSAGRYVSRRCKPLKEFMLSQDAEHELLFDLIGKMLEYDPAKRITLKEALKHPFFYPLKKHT
T2 sequence (Q00535 whole entry): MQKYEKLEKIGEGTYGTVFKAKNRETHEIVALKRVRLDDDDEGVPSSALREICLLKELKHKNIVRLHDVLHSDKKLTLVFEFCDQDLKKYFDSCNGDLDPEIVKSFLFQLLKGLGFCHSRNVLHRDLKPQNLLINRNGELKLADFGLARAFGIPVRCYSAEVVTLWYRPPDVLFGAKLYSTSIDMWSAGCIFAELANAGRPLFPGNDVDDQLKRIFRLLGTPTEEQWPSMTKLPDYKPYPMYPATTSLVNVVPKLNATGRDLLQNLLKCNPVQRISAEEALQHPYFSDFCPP
T2 sequence (Q15078 99-307 partner limits assumed): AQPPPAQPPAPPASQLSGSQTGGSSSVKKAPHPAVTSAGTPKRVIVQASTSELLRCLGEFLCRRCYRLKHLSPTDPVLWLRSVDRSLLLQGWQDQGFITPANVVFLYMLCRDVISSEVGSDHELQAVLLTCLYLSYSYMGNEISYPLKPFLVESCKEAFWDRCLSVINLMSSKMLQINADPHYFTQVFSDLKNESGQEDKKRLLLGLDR

melting point	IC50 (HASPIN)	IC50 (CK1δ/ε)	IC50 (CDK9/CyclinT)	IC50 (CDK5/p25)	IC50 (AURKB)	IC50 (CDK2/CyclinA)	IC50 (GSK3 α/β)	IC50 (PIM1)	IC50 (CLK1)	IC50 (DYRK1A)	Molecule	IC50 (K562; [2])	IC50 (HT-29; [3])	IC50 (HEp-2; [4])	IC50 (MCF-7; [5])	IC50 (MOLT-4; [6])	IC50 (NCI-H292; [7])	IC50 (HL-60; Homo sapiens, HL-60)	IC50 ([1]; Homo sapiens, PBMC)	also measured
237 to 239 °C											COc1cc(C=NNC(N)=O)ccc1O [Compound 3b, 4-Hydroxy-3-methoxybenzaldehyde Semicarbazone]	> 100 µM	> 100 µM	> 100 µM	> 100 µM	> 100 µM	> 100 µM	> 100 µM	> 100 µM	
237 to 239 °C	> 10 µM	> 10 µM	> 10 µM	> 10 µM	> 10 µM	> 10 µM	> 10 µM	> 10 µM	> 10 µM	> 10 µM	NC(=O)NN=Cc1ccc(Br)cc1 [Compound 3d, 4-Bromobenzaldehyde Semicarbazone]	25.2 ± 2.43 µM	> 100 µM	23.1 ± 0.8 µM	33.5 ± 0.75 µM	37.2 ± 0.84 µM	> 100 µM	16.9 ± 1.1 µM	46.3 ± 0.97 µM	
235 to 236 °C	> 10 µM	> 10 µM	> 10 µM	> 10 µM	> 10 µM	> 10 µM	> 10 µM	> 10 µM	> 10 µM	> 10 µM	NC(=O)NN=Cc1ccc(Cl)cc1 [Compound 3e, 4-Chlorobenzaldehyde Semicarbazone]	58.7 ± 0.97 µM	> 100 µM	22.3 ± 0.4 µM	33.9 ± 0.8 µM	> 100 µM	> 100 µM	> 100 µM	> 100 µM	
246 to 247 °C	> 10 µM	> 10 µM	> 10 µM	> 10 µM	> 10 µM	> 10 µM	> 10 µM	> 10 µM	> 10 µM	> 10 µM	NC(=O)NN=Cc1ccc(Cl)c(Cl)c1 [Compound 3f, 3,4-Dichlorobenzaldehyde Semicarbazone]	26.3 ± 1.86 µM	> 100 µM	8.61 ± 0.35 µM	23.3 ± 1.55 µM	> 100 µM	> 100 µM	14.2 ± 1.41 µM	> 100 µM	
225 to 226 °C											NC(=O)NN=Cc1ccncc1 [Compound 3i, 4-Pyridinecarboxaldehyde Semicarbazone]	> 100 µM	> 100 µM	> 100 µM	> 100 µM	> 100 µM	> 100 µM	> 100 µM	> 100 µM	

Further lines, the molecule ahead of its results:

Molecule	melting point	IC50 (HASPIN)	IC50 (CK1δ/ε)	IC50 (CDK9/CyclinT)	IC50 (CDK5/p25)	IC50 (AURKB)	IC50 (CDK2/CyclinA)	IC50 (GSK3 α/β)	IC50 (PIM1)	IC50 (CLK1)	IC50 (DYRK1A)	IC50 (K562; [2])	IC50 (HT-29; [3])	IC50 (HEp-2; [4])	IC50 (MCF-7; [5])	IC50 (MOLT-4; [6])	IC50 (NCI-H292; [7])	IC50 (HL-60; Homo sapiens, HL-60)	IC50 ([1]; Homo sapiens, PBMC)	also measured
2,6-Pyridinedicarboxaldehyde Semicarbazone [Compound 3j]																				IC50 (K562; 72 h of incubation): > 100 µM; IC50 (HT-29; 72 h of incubation): > 100 µM; IC50 (HEp-2; 72 h of incubation): > 100 µM; IC50 (MCF-7; 72 h of incubation): > 100 µM; IC50 (MOLT-4; 72 h of incubation): > 100 µM; IC50 (NCI-H292; 72 h of incubation): > 100 µM; IC50 (HL-60): > 100 µM; IC50 [1]: > 100 µM
COc1ccc(C=NNC(N)=O)cc1 [Compound 3a, 4-Methoxybenzaldehyde Semicarbazone]	210 to 212 °C											> 100 µM	> 100 µM	> 100 µM	> 100 µM	> 100 µM	> 100 µM	> 100 µM	> 100 µM	
CC(C)(C)c1ccc(C=NNC(N)=O)cc1 [Compound 3h, 4-Tert-Butylbenzaldehyde Semicarbazone]	216 to 218 °C	> 10 µM	> 10 µM	> 10 µM	> 10 µM	> 10 µM	> 10 µM	> 10 µM	> 10 µM	1.9 µM	> 10 µM	> 100 µM	47 ± 0.75 µM	42.9 ± 0.75 µM	58.4 ± 1.86 µM	25.5 ± 1.9 µM	48.8 ± 0.97 µM	> 100 µM	49.7 ± 1.06 µM	
NC(=O)NN=Cc1cccs1 [Compound 3k, 2-Thiophenecarboxaldehyde Semicarbazone]	227 to 230 °C											> 100 µM	> 100 µM	> 100 µM	> 100 µM	> 100 µM	> 100 µM	> 100 µM	> 100 µM	
NC(=O)N/N=C/c1ccc([N+](=O)[O-])o1 [Compound 3m, 5-Nitro-2-furfuraldehyde Semicarbazone]		> 10 µM		> 10 µM	> 10 µM			> 10 µM	> 10 µM				28.4 ± 8.56 µM		8.56 ± 0.01 µM		31.9 ± 0.07 µM	24.33 ± 0.16 µM	> 100 µM	
